# Source: PubChem BioAssay (NCI)
# Several values for one entry are separate records, joined by “and”; a condition that tells them apart may be missing. Equal entries are not always repeated.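 Where inhibition never reached the appropriate level, the endpoint shown equals the highest concentration tested. Otherwise, values were interpolated linearly from a five-concentration, 48-hour dose response in 96-well plates. At the GI50, growth is halved. TGI marks complete inhibition of growth.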
# Columns and labels:
# Assay in all cases: growth of human tumour cells (NCI), 48 h
# [1] = test system: HOP-62 NSCLC
# [2] = test system: KM12 colon
# [3] = test system: SF-539 CNS
# [4] = test system: MDA-MB-231 breast
# [5] = test system: HT29 colon
# [6] = test system: TK-10 renal
# [7] = test system: NCI-H23 lung
# [8] = test system: SN12C renal
# [9] = test system: OVCAR-4 ovarian
# [10] = test system: BT-549 breast
SMILES,GI50 [1],TGI [1],GI50 [2],TGI [2],GI50 [3],TGI [3],GI50 [4],TGI [4],GI50 [5],TGI [5],GI50 [6],TGI [6],GI50 [7],TGI [7],GI50 [8],TGI [8],GI50 [9],TGI [9],GI50 [10],TGI [10]
O=C(Nc1ccccc1)Nc1ccccc1CNc1nc(Nc2ccc(OCCN3CCCC3)cc2)ncc1Cl,6.96 µM,21.8 µM,2.15 µM,7.97 µM,1.72 µM,6.23 µM,1.49 µM,5.65 µM,1.66 µM,8.39 µM,4.36 µM,15 µM,7.29 µM,19.5 µM,2.41 µM,9.12 µM,1.81 µM,7.84 µM,5.05 µM,11.4 µM
C#Cc1ccc(-n2c(/C=C/c3cc(OC)c(OC)c(OC)c3)nc3ncccc3c2=O)cc1,13.3 µM,> 100 µM,3.32 µM,12.8 µM,4.57 µM,37.7 µM,5.53 µM,> 100 µM,3.92 µM,15.1 µM,17.3 µM,62.9 µM,17.3 µM,> 100 µM,20.5 µM,> 100 µM,12 µM,90.3 µM,2.99 µM,9.95 µM
COc1cc(OC)c(/C=C/S(=O)(=O)Cc2ccc(OC)c(NCC(=O)O)c2)c(OC)c1,0.291 µM and 0.0874 µM,> 100 µM,0.103 µM and 0.0499 µM,> 10 µM,0.193 µM and 0.0553 µM,,0.192 µM and 0.196 µM,> 2.68 µM,0.334 µM and 0.328 µM,> 8.57 µM and 1.4 µM,,> 100 µM,0.263 µM and 0.136 µM,> 100 µM,0.207 µM and 0.251 µM,> 100 µM,> 2.91 µM and 0.417 µM,> 100 µM,0.193 µM and 0.4 µM,> 24.5 µM
COc1cc2c(cc1OC)[C@H]1C(=O)c3cc4c(cc3[C@H]1N(C)C2=O)OCO4,,> 79.2 µM,,> 100 µM,,> 77.8 µM,,> 100 µM,,> 100 µM,,> 100 µM,,> 74.1 µM,,> 100 µM,,> 100 µM,,> 100 µM
COc1ccc(N(Cc2cc(OC)c(OC)c(OC)c2)C2OC(=O)c3ccccc32)cc1 (stereo not drawn),0.783 µM,> 100 µM,0.434 µM,> 36.7 µM,0.317 µM,1.24 µM,1.21 µM,> 25.4 µM,0.365 µM,> 43.1 µM,,> 100 µM,1.15 µM,> 100 µM,0.703 µM,> 100 µM,5.95 µM,> 100 µM,0.428 µM,> 100 µM
Cn1c(COC(=O)NCCN2CCOCC2)nc2c(N3CCOCC3)nc(-c3ccccc3)nc21,1.29 µM,3.3 µM,1.53 µM,3.4 µM,1.35 µM,2.68 µM,1.3 µM,2.88 µM,0.35 µM,1.66 µM,1.48 µM,2.88 µM,1.84 µM,4.1 µM,1.03 µM,2.6 µM,1.11 µM,2.53 µM,1.08 µM,2.71 µM
COc1cc(OC)cc(N2CCN(C(=O)Nc3nc4cc(F)ccc4nc3OC)CC2)c1,0.0346 µM and 0.0573 µM and 0.051 µM,58.7 µM and 25.2 µM,0.0282 µM and 0.0358 µM and 0.0302 µM,> 100 µM,0.0195 µM and 0.0228 µM and 0.0136 µM,,0.0524 µM and 0.0976 µM and 0.0361 µM,,0.0343 µM and 0.0372 µM and 0.0306 µM,,16.6 µM and 10.3 µM,71.6 µM and 63.8 µM,0.0578 µM and 0.062 µM and 0.052 µM,52.2 µM and 34.5 µM,0.067 µM and 0.0615 µM and 0.0576 µM,51.1 µM and 24.5 µM,,84.8 µM and > 100 µM,0.0345 µM and 0.0458 µM and 0.0335 µM,2.49 µM and 2.33 µM and 0.498 µM
N#CC1(C#N)C2C=CC(C3CCC=C32)C1(C#N)C#N (stereo not drawn),,> 10 µM,,> 10 µM,,> 10 µM,,> 10 µM,,> 10 µM,,> 9.01 µM,,> 10 µM,,> 10 µM,,> 10 µM,,> 10 µM
C[C@]12CC[C@@H]3c4ccc(O)cc4CC[C@H]3[C@@H]1CC[C@@H]2NS(=O)(=O)c1ccc(-c2ccccc2)cc1,10.5 µM,> 100 µM,3.81 µM,18.4 µM,3.91 µM,15.7 µM,4.58 µM,19.6 µM,3.3 µM,9.16 µM,4.42 µM,55.9 µM,3.49 µM,17.2 µM,2.75 µM,10.3 µM,2.43 µM,19 µM,2.99 µM,11.7 µM
CN1CC(C(=O)NC2(C)OC3(O)C4CCCN4C(=O)C(Cc4ccccc4)N3C2=O)C=C2c3cccc4[nH]cc(c34)CC21 (stereo not drawn),,63.2 µM,,99.6 µM,,39 µM,,45.5 µM,,71.1 µM,,41.4 µM,,46.9 µM,,43.5 µM,,> 100 µM,,43 µM
COc1cc(C(=O)/C=C/c2c(C(F)(F)F)nc3sccn23)cc(OC)c1OC,1.93 µM,3.92 µM,1.47 µM,2.97 µM,1.55 µM,2.96 µM,2.92 µM,9.84 µM,1.83 µM,4.08 µM,2.3 µM,5.12 µM,1.72 µM,3.89 µM,1.56 µM,3.69 µM,3.05 µM,17.6 µM,2.26 µM,6.87 µM
CC(C)(C)NCCC(O)c1cc(C(F)(F)F)nc2c(C(F)(F)F)cccc12 (stereo not drawn),,14.5 µM,,7.58 µM,,31 µM,,22.8 µM,,20.1 µM,,24.8 µM,,9.74 µM,,15.5 µM,,27.1 µM,,23.2 µM
OCCCCC#Cc1ccccc1C#Cc1cnccn1,41 µM,> 100 µM,36.2 µM,> 100 µM,53.8 µM,> 100 µM,18 µM,54.9 µM,27.6 µM,> 100 µM,47.7 µM,> 100 µM,40.8 µM,> 100 µM,47.3 µM,> 100 µM,28.5 µM,> 100 µM,17.4 µM,55.2 µM
O=c1[nH]c(-c2ccccn2)nc2sc3c(c12)CCCCCC3,6.24 µM,> 100 µM,4.1 µM,> 100 µM,7.84 µM,> 100 µM,8.76 µM,> 100 µM,7.69 µM,> 100 µM,> 100 µM,> 100 µM,11 µM,> 100 µM,6.29 µM,> 100 µM,5.88 µM,> 100 µM,5.62 µM,> 100 µM
